This is an account of results in paper PMC12446422, “Breastfeeding on ART and a closer look at drug transfer to HIV-exposed uninfected infants” (Scientific Reports, 2025).

Data set [1] is described as follows: ART drug monitoring in maternal serum (HPLC-UV). Format: in vivo, human. Conditions: for Maternal serum level, in words: against adult target range. The method, then: (§1) HIV-exposed infants were followed at the Pediatric Infectious Diseases Outpatient Clinic at the Department of General Pediatrics according to the current German and European guidelines for HIV-exposed or infected children[6],[11]. MLWH were followed at the department of Infection Medicine, Medical Service Centre Clotten, Freiburg. […] Two mothers (infants 2 and 4) were treated with dolutegravir 50 mg (DTG), abacavir 600 mg (ABC), and lamivudine 300 mg (3TC) once daily. The […] of infant 3 received tenofovir alafenamide/emtricitabine 25/200 mg (TAF/FTC) once daily in combination with nevirapine 200 mg (NVP) twice daily.
(§2) For all HIV-exposed children visits, clinical examinations and blood sampling took place at the age of one, four and 18 to 24 months. […] Routine blood tests included blood cell counts with differentials, transaminases, bilirubin at the first presentation, HIV-PCR and at 18–24 months or after cessation of breastfeeding HIV serology was performed. Primary outcome was infant serum drug exposure; breast-milk concentrations served as supportive secondary data. Serum samples of mothers and infants were drawn during visits to our clinic. Neither the timing of maternal drug intake and breastfeeding, nor the timing of the blood samples, was standardized. Therefore, no pharmacokinetic calculations could be performed. When available, additional serum samples of infants or mothers and a breast milk sample were sent to the Drug monitoring laboratory, Division of Infectious Diseases, Department of Internal Medicine II, University of Würzburg Medical Center, Germany. […] To assess the infant’s ART drug exposure upon breastfeeding, we calculated the relative infant dose (RID). The RID is a commonly used tool for assessing drug exposure and is calculated by dividing the infant’s ART level by the mother’s ART level, expressed as a decimal or percentage[13],[14]. All information for this study was derived from routine clinical exams and was, when available, retrospectively extracted from the patients’ medical records. […] For analysis, the HEU children were divided in 2 groups: HEU breastfed infants (n = 8) and HEU formula-fed infants (n = 62). […] All research was performed in accordance with relevant guidelines and regulations. Data collection and analysis were carried out in Microsoft Excel and R.

A short description of data set [2]: ART drug monitoring in breast milk (HPLC-UV). Format: in vivo, human. The conditions noted are these: oral, read-out: ART level in breast milk (BM); for concentration at 6 months (infant age): human one. How it is done:
as §1, §2

Data set [3] is described as follows: ART drug monitoring in serum of breastfed HEU infants (HPLC-UV). It is filed as in vivo, human. Conditions: for Infant serum level, in words: breastfed infants, against detection limit or adult target range; for concentration at 14 days (infant age) / concentration at 4 months (infant age) / concentration at 1 month (infant age) / concentration at 6 months (infant age): human; for concentration at 6 months (infant age): 6 months of age, breastfeeding exclusive, partial or stopped. How it is done: as §1, §2

Data set [4] in a line: Relative infant dose (RID): infant ART level divided by mother's ART level. It is filed as in vivo, human. Conditions: for < 10% RID: target RID expressed as infant serum level. How it is done:
as §2
The RID is used for clinical risk assessment, with a target RID of below 10% indicating a low risk of adverse drug reactions in infants[16],[17].

For data set [5], the system named is HEU breastfed infants. Briefly: Absolute neutrophil count of ART-exposed HEU breastfed infants. It is filed as in vivo, human. The method, then: as §2
ART serum levels above a 10% RID of the adult target range and neutropenia <1,0 (1000/µl) are indicated in bold.

For data set [6] the following is noted: statement in discussion; cited from earlier work.
For data set [7] the following is noted: statement in discussion; cited from earlier work. This is another data set of the same source.
For data set [8] the following is noted: target range for drug trough levels in adults; cited from earlier work.
[9] abbreviates: 14 days, breastfed infant exposed to maternal ART, ZDV prophylaxis given.
Setting [10] is: serum, other: breastfeeding (maternal ART), breastfed infant (entry one), read-out: ART level in infant serum (IS).
[11] abbreviates: all occasions, infant serum below detection, infant 4 (DTG), 8 (RAL), 5 (DRV/r), 7 (RPV).
Where [12] appears, read: child, infant 1 (RPV), infant 3 (nevirapine), infant 2 (DTG).
The mark [13] stands for this setting: serum, other: breastfeeding (maternal ART), read-out: ART level in infant serum (IS).

“And” between values parts separate entries of the source, which are not always exact repeats. Identical values can stand only once. “Also recorded” adds a separate entry of the source. Bounds are passed on as bounds.

As to `CC(C)CN(C[C@@H](O)[C@H](Cc1ccccc1)NC(=O)O[C@H]1CO[C@H]2OCC[C@H]21)S(=O)(=O)c1ccc(N)cc1` [DRV, darunavir], the concentration at 1 month (infant age) was 3800 ng/mL in data set [1] (female, human, in vivo, 1 month of age, read-out: ART level in maternal serum (MS)) and < 250 ng/mL in data set [2] (human three). Also, the concentration at 4 months (infant age) in data set [1] (female, human, in vivo, 4 months of age, read-out: ART level in maternal serum (MS)) was 4130 ng/mL; in data set [2] (human two), < 250 ng/mL; in data set [3] (in vivo, breastfed infant (entry three), read-out: ART level in infant serum (IS)) it was < 50 ng/mL. Besides, the concentration at 6 months (infant age) was 3360 ng/mL in data set [1] (female, human, in vivo, 6 months of age, read-out: ART level in maternal serum (MS)) and < 250 ng/mL in data set [2]. For the same compound, the “Infant serum level, in words” value in data set [3] is given as “below detectable levels”. The concentration at 14 days (infant age) in data set [3] (in vivo, breastfed infant (entry one), read-out: ART level in infant serum (IS)) is < 50 ng/mL. Further, the “< 10% RID” value in data set [4] was < 380 ng/mL. The “Neutro_abs (absolute neutrophil count)” value is 0,69 1000/ µl in data set [5] (1 month), 0,64 1000/ µl in data set [5] (4 months), 1,15 1000/ µl in data set [5] (6 months) and 1,16 1000/ µl in data set [5] (setting [9]). Moreover, the Lipophilicity entry in data set [6] is “lipophilic”. Moreover, the Plasma protein binding entry in data set [7] is “high”.
Turning to `C[C@@H]1CCO[C@H]2Cn3cc(C(=O)NCc4ccc(F)cc4F)c(=O)c(O)c3C(=O)N12` [DTG, dolutegravir], the “Maternal serum level, in words” value in data set [1] is listed as “within the therapeutic range”. Also, the concentration at 4 months (infant age) was 2410 ng/mL in data set [1] (human two, serum, oral, read-out: ART level in maternal serum (MS)) and 648 ng/mL in data set [2] (human two). Moreover, in data set [2], the concentration at 6 months (infant age) is 680 ng/mL. In addition, the concentration at 1 month (infant age) in data set [2] (human three) and in data set [3] (setting [10]) was < 50 ng/mL each time. In addition, the “RID (relative infant dose)” value is given as < 10% in data set [4] (setting [11]) and 240% in data set [4] (setting [12]). Further, the “< 10% RID” value in data set [4] was < 400 ng/mL. The “Neutro_abs (absolute neutrophil count)” value is 3,25 1000/ µl in data set [5] (18 months) and 3,53 1000/ µl in data set [5] (setting [9]). Besides, in data set [8], the Adult trough level was 250 to 4000 ng/mL. In data set [6], the Lipophilicity entry is listed as “moderately lipophilic”.
As to `Cc1ccnc2c1NC(=O)c1cccnc1N2C1CC1` [NVP, nevirapine], the concentration at 6 months (infant age) in data set [1] (human one, serum, oral, read-out: ART level in maternal serum (MS)) was 3930 ng/mL; in data set [3] (setting [13]) it was 649 ng/mL. Further, the concentration at 1 month (infant age) in data set [3] (setting [10]) is 1210 ng/mL. For the same compound, in data set [3] (serum, other: breastfeeding (maternal ART), breastfed infant (entry two), read-out: ART level in infant serum (IS)), the concentration at 4 months (infant age) was 1150 ng/mL. The “RID (relative infant dose)” value in data set [4] (setting [12]) came out at 171%. The “< 10% RID” value in data set [4] is < 670 ng/mL. Besides, the “Neutro_abs (absolute neutrophil count)” value in data set [5] (1 month) is 1,53 1000/ µl; in data set [5] (4 months) it was 1,20 1000/ µl; in data set [5] (6 months), 3,33 1000/ µl; in data set [5] (18 months), 1,32 1000/ µl. The Adult trough level in data set [8] was 1600 to 6700 ng/mL. Besides, in data set [6], the Lipophilicity entry is reported as “highly lipophilic”.
For `Cc1nnc(C(=O)NC(C)(C)c2nc(C(=O)NCc3ccc(F)cc3)c(O)c(=O)n2C)o1` [RAL, raltegravir], the concentration at 1 month (infant age) in data set [1] (female, human, in vivo) is 872 ng/mL; in data set [2] (female, human, 1 month of age) it was 293 ng/mL; in data set [3] (in vivo), < 75 ng/mL. Moreover, the concentration at 4 months (infant age) in data set [1] (female, human, in vivo) is 184 ng/mL; in data set [2] (female, human, 4 months of age), 168 ng/mL; in data set [3] (in vivo) it was < 75 ng/mL. Moreover, the concentration at 14 days (infant age) in data set [1] (female, human, serum, oral, 14 days of age, timing of intake and sampling not standardized, read-out: ART level in maternal serum (MS)) was < 75 ng/mL; in data set [2] (female, human, 14 days of age) it was 1760 ng/mL; in data set [3] (in vivo), < 75 ng/mL. The “Infant serum level, in words” value in data set [3] is given as “below the detectable range”. In addition, the “< 10% RID” value in data set [4] was < 55 ng/mL. Moreover, the “Neutro_abs (absolute neutrophil count)” value is 1,32 1000/ µl in data set [5] (1 month), 3,35 1000/ µl in data set [5] (18 months) and 2,74 1000/ µl in data set [5] (setting [9]). In data set [6], the Lipophilicity result is given as “moderately lipophilic”.
In the case of `Cc1cc(/C=C/C#N)cc(C)c1Nc1ccnc(Nc2ccc(C#N)cc2)n1` [RPV, rilpivirine], in data set [1], the “Maternal serum level, in words” value is given as “above the adult target range; also recorded: well above the adult therapeutic range”. Besides, the concentration at 6 months (infant age) in data set [2] and in data set [3] (setting [13]) was < 50 ng/mL throughout. For the same compound, the concentration at 1 month (infant age) in data set [2] (human three) was < 50 ng/mL. Also, the “Infant serum level, in words” value in data set [3] was “below the detectable range; also recorded: below the range of detection; also recorded: above the adult target range”. The “RID (relative infant dose)” value in data set [4] (setting [11]) is < 10%; in data set [4] (setting [12]) it was 633%. For the same compound, the “< 10% RID” value in data set [4] was < 20 ng/mL. The “Neutro_abs (absolute neutrophil count)” value in data set [5] (4 months) is 1,80 1000/ µl and 1,15 1000/ µl and 1,05 1000/ µl; in data set [5] (18 months), 1,77 1000/ µl and 1,65 1000/ µl and 1,39 1000/ µl; in data set [5] (setting [9]) it was 2,25 1000/ µl and 2,27 1000/ µl. Further, the Adult trough level in data set [8] was 50 to 200 ng/mL. Besides, the Lipophilicity result in data set [6] was “highly lipophilic”.
